Assay results reported in patent US20060241301A1, “Urea derivatives and their use as tyrosinkinase inhibitors” (priority 2003, published 2006).

Legend:
TIE-2 = TIE-2 (Homo sapiens, UniProt Q02763); assay: TIE-2 kinase flashplate assay (phosphorylation of poly(Glu, Tyr), 33P-ATP); assay type: biochemical; settings: read-out: Inhibition by TIE-2 IC50
Experimental: The TIE-2 tests can be carried out, for example, analogously to the methods indicated in WO 02/44156.
The assay determines the inhibiting activity of the substances to be tested in the phosphorylation of the substrate poly(Glu, Tyr) by Tie-2 kinase in the presence of radioactive ^33P-ATP. The phosphorylated substrate binds to the surface of a “flashplate” microtitre plate during the incubation time. After removal of the reaction mixture, the microtitre plate is washed a number of times and the radioactivity on its surface is subsequently measured. An inhibiting effect of the substances to be measured results in lower radioactivity compared with an undisturbed enzymatic reaction.

RAF = RAF kinase inhibition; assay type: biochemical

Chain of TIE-2 (Q02763 23-1124, species assumed): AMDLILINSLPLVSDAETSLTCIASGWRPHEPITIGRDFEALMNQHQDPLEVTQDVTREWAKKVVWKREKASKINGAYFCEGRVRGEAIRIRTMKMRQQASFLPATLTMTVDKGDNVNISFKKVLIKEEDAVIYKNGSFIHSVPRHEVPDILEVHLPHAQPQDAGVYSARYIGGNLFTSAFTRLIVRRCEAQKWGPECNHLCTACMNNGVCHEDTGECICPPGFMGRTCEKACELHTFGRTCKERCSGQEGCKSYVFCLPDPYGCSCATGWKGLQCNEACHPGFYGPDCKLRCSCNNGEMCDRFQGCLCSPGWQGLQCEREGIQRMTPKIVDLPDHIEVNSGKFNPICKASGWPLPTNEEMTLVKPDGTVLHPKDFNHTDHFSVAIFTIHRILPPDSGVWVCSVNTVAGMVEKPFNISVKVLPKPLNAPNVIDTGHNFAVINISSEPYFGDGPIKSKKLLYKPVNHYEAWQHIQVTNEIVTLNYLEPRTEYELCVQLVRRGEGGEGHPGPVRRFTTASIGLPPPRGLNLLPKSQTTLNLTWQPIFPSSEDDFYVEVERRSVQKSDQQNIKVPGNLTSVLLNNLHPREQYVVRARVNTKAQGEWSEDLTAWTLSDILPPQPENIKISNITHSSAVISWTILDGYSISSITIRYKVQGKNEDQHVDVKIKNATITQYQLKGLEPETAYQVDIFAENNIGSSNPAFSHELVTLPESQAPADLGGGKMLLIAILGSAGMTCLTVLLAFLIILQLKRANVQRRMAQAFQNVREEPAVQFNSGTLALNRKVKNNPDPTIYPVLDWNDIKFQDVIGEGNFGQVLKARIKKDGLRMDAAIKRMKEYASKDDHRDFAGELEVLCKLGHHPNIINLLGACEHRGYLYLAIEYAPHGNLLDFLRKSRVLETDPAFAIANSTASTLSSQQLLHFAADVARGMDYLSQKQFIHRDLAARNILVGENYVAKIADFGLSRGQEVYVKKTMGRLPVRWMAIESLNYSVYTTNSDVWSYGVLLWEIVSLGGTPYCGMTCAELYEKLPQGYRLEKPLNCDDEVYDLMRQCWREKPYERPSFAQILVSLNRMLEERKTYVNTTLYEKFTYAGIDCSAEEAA

SMILES	IC50 (TIE-2) [nM]	IC50 (RAF) [nM]
CNC(=O)c1cc(Oc2ccc(NC(=O)Nc3cc(C(F)(F)F)ccc3F)cc2)ccn1 [No. 2, N-methyl-4-{4-[3-(fluorotrifluoromethylphenyl)ureido]phenoxy}pyridine-2-carboxamide]	32	–
O=C(Nc1ccc(Oc2ccc3nsnc3c2)cc1)Nc1cc(C(F)(F)F)ccc1F [A1, 1-[4-(Benzo-1,2,5-thiadiazol-5-yloxy)phenyl]-3-(2-fluoro-5-trifluoromethylphenyl)urea]	57	220
CNC(=O)c1cc(Oc2ccc(NC(=O)Nc3ccc(Cl)c(C(F)(F)F)c3)cc2)ccn1	–	264
